Results reported in PMC9463526 (Journal of Pharmaceutical Analysis, 2022).
Like-named read-outs stand apart in the source and are kept apart here.

What was measured:
[1] = Equilibrium dialysis, fraction unbound in brain homogenate; format: in vitro ADME, human; conditions: pH 7.4; human brain homogenate spiked at 20 and 200 nM; 16 h equilibrium dialysis; read-out: Fraction unbound (fu), Brain
Description: (§1) Equilibrium dialysis was employed to measure the fraction unbound of analytes in plasma, brain, and brain tumor tissue homogenates using 96-well DispoEquilibrium Dialyzer plates with a 10 kDa cut-off regenerated cellulose membrane. Dialysis was performed using 180 μL of human plasma or tissue homogenate against an equal volume of PBS (pH 7.4) in a dual-plate rotator (Harvard Apparatus, Holliston, MA, USA). Equilibrium time was initially optimized by analyzing samples after 2, 4, 6, 8, 16, and 24 h of dialysis at concentrations of 20 and 200 nM in human plasma and brain homogenate. The dialysates were collected and processed as described in Sections 2.3.2 and 2.3.3. The recovery of analytes was calculated as the ratio of analyte concentration after dialysis (sum of concentrations found in PBS and matrix fractions) to the total concentration to ensure the reliability and reproducibility of the assay. The experiments were repeated at least three times, and each sample in triplicate and average fraction unbound values were determined.
(§2) The fraction unbound in plasma (fu, plasma) and tissue homogenate (fu, hom) was evaluated as the analyte concentration ratio of post-dialysis PBS (cu) to post-dialysis plasma (cp, Eq. (1)) or homogenate (chom, Eq. (2)).(1) fu,plasma =cu/cp (2) fu,hom =cu/chom
The fraction unbound in the actual tissue (fu, tissue) was obtained by incorporating the unbound fraction in the tissue homogenate (fu, hom) and the dilution factor (Df) into Eq. (3).(3) fu,tissue = fu,hom/[Df - (Df - 1)fu,hom]

[2] = Levels in intraoperatively collected CSF of GBM patients; format: in vivo; conditions: human, po, five GBM patients, oral LY3214996 200 mg once daily and abemaciclib 150 mg twice daily for 5 days, intraoperative CSF
Description: Blank brain and clinical brain tumor tissue homogenates were prepared at 1:9 (m/V) ratio with PBS. The samples were homogenized at a speed of 6.00 m/s for 40 s for three cycles using a Bead Ruptor Elite homogenizer (Omni International, Kennesaw, GA, USA). Plasma was used as a surrogate matrix when preparing calibration curves for brain and brain tumor homogenates and CSF as well as for the PBS fraction after sample dialysis. To minimize matrix differences, all plasma samples were spiked with PBS, while all non-plasma samples were spiked with plasma. Extraction of the analyte and IS was facilitated by protein precipitation using methanol-containing IS precipitation solution. Samples (70 μL) spiked with PBS or plasma were precipitated using 400 μL of IS precipitation solution. After centrifugation at 12,000 r/min for 10 min at 4 °C, the supernatant was transferred for LC-MS/MS analysis.
The validated bioanalytical method was employed to investigate analytes pharmacokinetics in the plasma, brain tumor, and CSF in GBM patients (ClinicalTrials.gov identifier: NCT04391595). The protocol was reviewed and approved by the Institutional Review Board of the Barrow Neurological Institute, St. Joseph's Hospital and Medical Center (Phoenix, AZ, USA). All patients enrolled in the trial provided written informed consent. […] Blood, CSF, and GBM tissue (including gadolinium-contrast enhancing and non-enhancing regions) samples were obtained intra-operatively from each patient on the […] on the planned operation day. Blood was centrifuged at 4 °C and 3,000 r/min for 10 min; plasma was subsequently collected. Brain tumors were resected 7–9 h after the last dose was administered. Once resected, the tissue samples were rinsed with PBS, paper dried, and freshly frozen in liquid nitrogen. The samples were then stored at −80 °C in a freezer for later analysis.

[3] = Equilibrium dialysis, fraction unbound in plasma; format: in vitro ADME, human; conditions: pH 7.4, 16 h equilibrium dialysis
Description: as §1, §2
Unbound drug levels in the actual plasma and brain tumor tissue were measured using dialysis for 16 h to reach equilibrium. The mean of fraction unbound values determined in five patient samples was calculated.

[4] = Analyte stability in human plasma; format: physicochemical; conditions: for Freeze-thaw stability, Accuracy / Freeze-thaw stability, Mean concentration / Freeze-thaw stability, Difference: 3 cycles; for Freeze-thaw stability, Difference / Benchtop stability, Difference / Processed sample stability, Difference / Autosampler stability (5 °C), Difference / Long-term stability (−20 °C), Difference: vs freshly processed QC; for Benchtop stability, Accuracy / Benchtop stability, Mean concentration / Benchtop stability, Difference: 19 h; for Processed sample stability, Accuracy / Processed sample stability, Mean concentration / Processed sample stability, Difference: 23 h; for Autosampler stability (5 °C), Accuracy / Autosampler stability (5 °C), Mean concentration / Autosampler stability (5 °C), Difference: 112 h; for Long-term stability (−20 °C), Accuracy / Long-term stability (−20 °C), Mean concentration / Long-term stability (−20 °C), Difference: 27 days
Description: (§3) The stability of the analytes was studied under various storage and processing conditions. […] Short- and long-term stability studies of all analytes were conducted in human blank plasma and brain homogenate under several storage conditions. Analyte stability in biological matrices was analyzed using freshly prepared calibration standards and QC samples. The percentage difference between the stability and freshly processed QC was also assessed. Re-injection reproducibility was evaluated within the sample stability period in the autosampler. Analytes were considered stable if the accuracy at each level was ±15.0% of the nominal value. Additionally, the difference from corresponding comparison QC samples must be within ±15.0%.

[5] = Analyte stability in brain homogenate; format: physicochemical, human; conditions: for Freeze-thaw stability, Accuracy / Freeze-thaw stability, Mean concentration / Freeze-thaw stability, Difference: 3 cycles; for Freeze-thaw stability, Difference / Benchtop stability, Difference / Processed sample stability, Difference / Autosampler stability (5 °C), Difference / Long-term stability (−20 °C), Difference: vs freshly processed QC; for Benchtop stability, Accuracy / Benchtop stability, Mean concentration / Benchtop stability, Difference: 6 h; for Processed sample stability, Accuracy / Processed sample stability, Mean concentration / Processed sample stability, Difference: 22 h; for Autosampler stability (5 °C), Accuracy / Autosampler stability (5 °C), Mean concentration / Autosampler stability (5 °C), Difference: 96 h; for Long-term stability (−20 °C), Accuracy / Long-term stability (−20 °C), Mean concentration / Long-term stability (−20 °C), Difference: 39 days
Description: as §3

CCN1CCN(Cc2ccc(Nc3ncc(F)c(-c4cc(F)c5nc(CO)n(C(C)C)c5c4)n3)nc2)CC1 [M20]
fraction unbound at 16 h [1]: 0.021 | concentration at 6 day (intra-operative) ([2]; read-out: Level in CSF (range)): 0.0031 to 0.0581 µM | concentration at 6 day (intra-operative) ([2]; read-out: Median level in CSF): 0.0127 µM | fraction unbound at 16 h ([3]; human, plasma of five GBM patients, read-out: Fraction unbound (fu), Plasma (patients)): 0.023 | fraction unbound at 16 h ([3]; pooled human plasma spiked at 20 and 200 nM, read-out: Fraction unbound (fu), Plasma (pooled)): 0.024 | Freeze-thaw stability, Accuracy ([4]; HQC 400.0 nM): 99.6% | Freeze-thaw stability, Mean concentration ([4]; HQC 400.0 nM): 398.6 nM | Freeze-thaw stability, Difference ([4]; HQC 400.0 nM): 0.3% | Freeze-thaw stability, Accuracy ([4]; LQC 0.6 nM): 97.2% | Freeze-thaw stability, Mean concentration ([4]; LQC 0.6 nM): 0.583 nM | Freeze-thaw stability, Difference ([4]; LQC 0.6 nM): 2.9% | Benchtop stability, Accuracy ([4]; HQC 400.0 nM): 102.2% | Benchtop stability, Mean concentration ([4]; HQC 400.0 nM): 408.9 nM | Benchtop stability, Difference ([4]; HQC 400.0 nM): 2.8% | Benchtop stability, Accuracy ([4]; LQC 0.6 nM): 99.9% | Benchtop stability, Mean concentration ([4]; LQC 0.6 nM): 0.599 nM | Benchtop stability, Difference ([4]; LQC 0.6 nM): 3.5% | Processed sample stability, Accuracy ([4]; HQC 400.0 nM): 101.4% | Processed sample stability, Mean concentration ([4]; HQC 400.0 nM): 405.7 nM | Processed sample stability, Difference ([4]; HQC 400.0 nM): 2.7% | Processed sample stability, Accuracy ([4]; LQC 0.6 nM): 88.9% | Processed sample stability, Mean concentration ([4]; LQC 0.6 nM): 0.534 nM | Processed sample stability, Difference ([4]; LQC 0.6 nM): −2% | Autosampler stability (5 °C), Accuracy ([4]; HQC 400.0 nM): 95.6% | Autosampler stability (5 °C), Mean concentration ([4]; HQC 400.0 nM): 382.5 nM | Autosampler stability (5 °C), Difference ([4]; HQC 400.0 nM): −2% | Autosampler stability (5 °C), Accuracy ([4]; LQC 0.6 nM): 95.1% | Autosampler stability (5 °C), Mean concentration ([4]; LQC 0.6 nM): 0.57 nM | Autosampler stability (5 °C), Difference ([4]; LQC 0.6 nM): 1.3% | Long-term stability (−20 °C), Accuracy ([4]; HQC 400.0 nM): 104.7% | Long-term stability (−20 °C), Mean concentration ([4]; HQC 400.0 nM): 418.8 nM | Long-term stability (−20 °C), Difference ([4]; HQC 400.0 nM): 2.7% | Long-term stability (−20 °C), Accuracy ([4]; LQC 0.6 nM): 101.7% | Long-term stability (−20 °C), Mean concentration ([4]; LQC 0.6 nM): 0.61 nM | Long-term stability (−20 °C), Difference ([4]; LQC 0.6 nM): −4% | Freeze-thaw stability, Accuracy ([5]; HQC 400.0 nM): 108.7% | Freeze-thaw stability, Mean concentration ([5]; HQC 400.0 nM): 434.9 nM | Freeze-thaw stability, Difference ([5]; HQC 400.0 nM): 1.4% | Freeze-thaw stability, Accuracy ([5]; LQC 0.6 nM): 108.5% | Freeze-thaw stability, Mean concentration ([5]; LQC 0.6 nM): 0.651 nM | Freeze-thaw stability, Difference ([5]; LQC 0.6 nM): −1.5% | Benchtop stability, Accuracy ([5]; HQC 400.0 nM): 93.7% | Benchtop stability, Mean concentration ([5]; HQC 400.0 nM): 375.0 nM | Benchtop stability, Difference ([5]; HQC 400.0 nM): −4.4% | Benchtop stability, Accuracy ([5]; LQC 0.6 nM): 100.0% | Benchtop stability, Mean concentration ([5]; LQC 0.6 nM): 0.6 nM | Benchtop stability, Difference ([5]; LQC 0.6 nM): 2.3% | Processed sample stability, Accuracy ([5]; HQC 400.0 nM): 97.8% | Processed sample stability, Mean concentration ([5]; HQC 400.0 nM): 391.1 nM | Processed sample stability, Difference ([5]; HQC 400.0 nM): −0.2% | Processed sample stability, Accuracy ([5]; LQC 0.6 nM): 100.5% | Processed sample stability, Mean concentration ([5]; LQC 0.6 nM): 0.603 nM | Processed sample stability, Difference ([5]; LQC 0.6 nM): 2.7% | Autosampler stability (5 °C), Accuracy ([5]; HQC 400.0 nM): 100.3% | Autosampler stability (5 °C), Mean concentration ([5]; HQC 400.0 nM): 401.3 nM | Autosampler stability (5 °C), Difference ([5]; HQC 400.0 nM): 2.7% | Autosampler stability (5 °C), Accuracy ([5]; LQC 0.6 nM): 101.9% | Autosampler stability (5 °C), Mean concentration ([5]; LQC 0.6 nM): 0.612 nM | Autosampler stability (5 °C), Difference ([5]; LQC 0.6 nM): 10.3% | Long-term stability (−20 °C), Accuracy ([5]; HQC 400.0 nM): 112.0% | Long-term stability (−20 °C), Mean concentration ([5]; HQC 400.0 nM): 448.1 nM | Long-term stability (−20 °C), Difference ([5]; HQC 400.0 nM): 4.5% | Long-term stability (−20 °C), Accuracy ([5]; LQC 0.6 nM): 105.9% | Long-term stability (−20 °C), Mean concentration ([5]; LQC 0.6 nM): 0.635 nM | Long-term stability (−20 °C), Difference ([5]; LQC 0.6 nM): −3.9%
